Laboratory results as given in patent US20070004660A1, “Synergistic Modulation of Flt3 Kinase Using Alkylquinolines and Alkylquinazolines” (priority 2005, published 2007).

What follows are compounds tested on MV4-11 cells (assay: Inhibition of MV4-11 cell proliferation (CellTiterGlo, 72 h)). Conditions: Homo sapiens; 72 h growth inhibition; uncertainty ±20%.
Assay type: cell-based
Compound `COc1cc2ncnc(C3CCN(C(=O)Nc4ccc(-c5ccc(Cl)nc5)cc4)CC3)c2cc1OC` [Example 60, 4-(6,7-Dimethoxy-quinazolin-4-yl)-piperidine-1-carboxylic acid [4-(6-chloro-pyridin-3-yl)-phenyl]-amide] has an IC50 of 1400 nM.
Work on `COCCCOc1ccc2c(C3CCN(C(=O)Nc4ccc(N5CCOCC5)cc4)CC3)ncnc2c1` [Example 78, 4-[7-(3-Methoxy-propoxy)-quinazolin-4-yl]-piperidine-1-carboxylic acid (4-morpholin-4-yl-phenyl)-amide] yielded an IC50 of 81 nM.
`O=C(Nc1ccc(N2CCOCC2)cc1)N1CCC(c2ncnc3cc(OCCN4CCOCC4)ccc23)CC1` [Example 96, 4-[7-(2-Morpholin-4-yl-ethoxy)-quinazolin-4-yl]-piperidine-1-carboxylic acid (4-morpholin-4-yl-phenyl)-amide] showed an IC50 of 235 nM.
`COc1cc2ncnc(C3CCN(C(=O)NC4CCC(C(C)(C)C)CC4)CC3)c2cc1OC` (centres unmarked) [Example 54, 4-(6,7-Dimethoxy-quinazolin-4-yl)-piperidine-1-carboxylic acid (4-tert-butyl-cyclohexyl)-amide] was tested, and the IC50 was 224 nM.
Work on `O=C(Nc1ccc(N2CCOCC2)nc1)N1CCC(c2ncnc3cc(OCCN4CCOC4=O)ccc23)CC1` [Example 91, 4-{7-[2-(2-Oxo-oxazolidin-3-yl)-ethoxy]-quinazolin-4-yl}-piperidine-1-carboxylic acid (6-morpholin-4-yl-pyridin-3-yl)-amide] yielded an IC50 of 98 nM.
In the case of `CC(C)c1ccc(NC(=O)N2CCC(c3ncnc4ccccc34)CC2)cc1` [Example 7, 4-Quinazolin-4-yl-piperidine-1-carboxylic acid (4-isopropyl-phenyl)-amide], the IC50 is reported as 232 nM.
`O=C1CCCN1CCCOc1ccc2c(C3CCN(C(=O)Nc4ccc(N5CCOCC5)nc4)CC3)ncnc2c1` [Example 72, 4-{7-[3-(2-Oxo-pyrrolidin-1-yl)-propoxy]-quinazolin-4-yl}-piperidine-1-carboxylic acid (6-morpholin-4-yl-pyridin-3-yl)-amide] was tested, and the IC50 was 54 nM.
For `CN1CCN(CCCOc2ccc3c(C4CCN(C(=O)Nc5ccc(N6CCCC6)nc5)CC4)ncnc3c2)CC1` [Example 104, 4-{7-[3-(4-Methyl-piperazin-1-yl)-propoxy]-quinazolin-4-yl}-piperidine-1-carboxylic acid (6-pyrrolidin-1-yl-pyridin-3-yl)-amide], the IC50 was 12 nM.
Work on `COc1cc2ncnc(C3CCN(C(=O)Nc4ccc(Oc5ccccc5)cc4)CC3)c2cc1OC` [Example 47, 4-(6,7-Dimethoxy-quinazolin-4-yl)-piperidine-1-carboxylic acid (4-phenoxy-phenyl)-amide] yielded an IC50 of 122 nM.
For `CC(C)Oc1ccc(NC(=O)N2CCC(c3ncnc4ccc(C#CCO)cc34)CC2)cc1` [Example 12, 4-[6-(3-Hydroxy-prop-1-ynyl)-quinazolin-4-yl]-piperidine-1-carboxylic acid (4-isopropoxy-phenyl)-amide], the IC50 was 149 nM.
`CC(C)Oc1ccc(NC(=O)N2CCC(c3ncnc4cc(N5CCN(C)CC5)ccc34)CC2)cc1` [Example 103, 4-[7-(4-Methyl-piperazin-1-yl)-quinazolin-4-yl]-piperidine-1-carboxylic acid (4-isopropoxy-phenyl)-amide] gave an IC50 of 25 nM.
`COc1cc2ncnc(C3CCN(C(=O)Nc4ccc(OC(F)F)cc4)CC3)c2cc1OC` [Example 51, 4-(6,7-Dimethoxy-quinazolin-4-yl)-piperidine-1-carboxylic acid (4-difluoromethoxy-phenyl)-amide] was tested, and the IC50 was 306 nM.
Compound `CC(C)Oc1ccc(NC(=O)N2CCC(c3ncnc4ccc(OCCCN5CCN(C)CC5)cc34)CC2)cc1` [Example 76, 4-{6-[3-(4-Methyl-piperazin-1-yl)-propoxy]-quinazolin-4-yl}-piperidine-1-carboxylic acid (4-isopropoxy-phenyl)-amide] has an IC50 of 179 nM.
Compound `COc1cc2ncnc(C3CCN(C(=O)Nc4ccc(OC(C)C)nc4)CC3)c2cc1OC` [Example 56, 4-(6,7-Dimethoxy-quinazolin-4-yl)-piperidine-1-carboxylic acid (6-isopropoxy-pyridin-3-yl)-amide] has an IC50 of 189 nM.
`COc1cc2ncnc(C3CCN(C(=O)Nc4ccc(C(C)(C)C)cc4)CC3)c2cc1OC` [Example 53, 4-(6,7-Dimethoxy-quinazolin-4-yl)-piperidine-1-carboxylic acid (4-tert-butyl-phenyl)-amide] gave an IC50 of 48 nM.
With `CN(C)C(=O)N1CCN(CCCOc2ccc3c(C4CCN(C(=O)Nc5ccc(N6CCOCC6)cc5)CC4)ncnc3c2)CC1` [Example 120, 4-(3-{4-[1-(4-Morpholin-4-yl-phenylcarbamoyl)-piperidin-4-yl]-quinazolin-7-yloxy}-propyl)-piperazine-1-carboxylic acid dimethylamide] the IC50 was 220 nM.
`CN1CCC(COc2ccc3c(C4CCN(C(=O)Nc5ccc(N6CCOCC6)nc5)CC4)ncnc3c2)CC1` [Example 108, 4-[7-(1-Methyl-piperidin-4-ylmethoxy)-quinazolin-4-yl]-piperidine-1-carboxylic acid (6-morpholin-4-yl-pyridin-3-yl)-amide] was tested, and the IC50 was 173 nM.
`O=C(Nc1ccc(N2CCOCC2)cc1)N1CCC(c2ncnc3cc(OCCCN4CCC[C@H]4CO)ccc23)CC1` [Example 119, (S)-4-{7-[3-(2-Hydroxymethyl-pyrrolidin-1-yl)-propoxy]-quinazolin-4-yl}-piperidine-1-carboxylic acid (4-morpholin-4-yl-phenyl)-amide] gave an IC50 of 53 nM.
`O=C(Nc1ccc(N2CCOCC2)cc1)N1CCC(c2ncnc3cc(OCCCO)ccc23)CC1` [Example 77, 4-[7-(3-Hydroxy-propoxy)-quinazolin-4-yl]-piperidine-1-carboxylic acid (4-morpholin-4-yl-phenyl)-amide] was tested, and the IC50 was 139 nM.
Work on `CC(C)Oc1ccc(NC(=O)N2CCC(c3ncnc4ccc(I)cc34)CC2)cc1` [Example 11, 4-(6-Iodo-quinazolin-4-yl)-piperidine-1-carboxylic acid (4-isopropoxy-phenyl)-amide] yielded an IC50 of 460 nM.
`O=C1CCCN1CCCOc1ccc2c(C3CCN(C(=O)Nc4ccc(N5CCCC5)nc4)CC3)ncnc2c1` [Example 89, 4-{7-[3-(2-Oxo-pyrrolidin-1-yl)-propoxy]-quinazolin-4-yl}-piperidine-1-carboxylic acid (6-pyrrolidin-1-yl-pyridin-3-yl)-amide] was tested, and the IC50 was 24 nM.
For `CN1CCN(CCCOc2ccc3c(C4CCN(C(=O)Nc5cnc(N6CCCC6)nc5)CC4)ncnc3c2)CC1` [Example 105, 4-{7-[3-(4-Methyl-piperazin-1-yl)-propoxy]-quinazolin-4-yl}-piperidine-1-carboxylic acid (2-pyrrolidin-1-yl-pyrimidin-5-yl)-amide], the IC50 was 91 nM.
In the case of `COc1cc2ncnc(C3CCN(CC(=O)Nc4ccc(OC(C)C)cc4)CC3)c2cc1OC` [Example 10, 2-[4-(6,7-Dimethoxy-quinazolin-4-yl)-piperidin-1-yl]-N-(4-isopropoxy-phenyl)-acetamide], the IC50 is reported as 171 nM.
